# ChEMBL document CHEMBL1146879, “Novel benzimidazole-based MCH R1 antagonists” (Bioorg Med Chem Lett, 2006)
# How the values were obtained:
# [1] = Bioavailability in rat at 3 mg/kg, iv and 5 to 10 mg/kg, po; assay type: ADME, organism-based; conditions: in vivo
# [2] = molecular target: Melanin-concentrating hormone receptor 1 (Homo sapiens, UniProt Q99705); test: Antagonist activity against MCH1R expressed in CHO cells assessed as inhibition of MCH-induced EC80 […] response by luciferase reporter gene assay; assay type: functional, cell-based
# Sequence of Melanin-concentrating hormone receptor 1 (Q99705 whole entry): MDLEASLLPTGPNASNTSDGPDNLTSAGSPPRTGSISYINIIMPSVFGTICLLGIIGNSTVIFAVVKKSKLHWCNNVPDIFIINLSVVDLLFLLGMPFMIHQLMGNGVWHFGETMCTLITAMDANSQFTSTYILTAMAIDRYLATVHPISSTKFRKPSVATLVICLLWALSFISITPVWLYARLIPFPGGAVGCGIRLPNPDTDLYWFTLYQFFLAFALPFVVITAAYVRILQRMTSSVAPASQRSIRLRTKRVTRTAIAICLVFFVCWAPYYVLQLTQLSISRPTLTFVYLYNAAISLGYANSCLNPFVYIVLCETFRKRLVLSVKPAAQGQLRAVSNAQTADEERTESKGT
# Mus musculus [3] = test: Decrease in body weight of AKR/J DIO mouse relative to control after 15 days at 0.3 mg/kg, po; assay type: functional; set-up: scale not given: the % may be the effect or the level left
# [4] = Bioavailability in mouse at 1.6 mg/kg, iv and 5.2 mg/kg, po; assay type: ADME, organism-based; conditions: in vivo
# [5] = Ratio of drug level in brain against plasma in mouse; assay type: ADME, organism-based; conditions: brain and plasma, read-out: BPR
# [6] = Half life in mouse; assay type: ADME, organism-based; conditions: in vivo
# Mus musculus [7] = test: Decrease in body weight of AKR/J DIO mouse relative to control after 15 days at 1 mg/kg, po; assay type: functional; set-up: scale not given: the % may be the effect or the level left
# Mus musculus [8] = test: Decrease in body weight of AKR/J DIO mouse relative to control after 15 days at 3 mg/kg, po; assay type: functional; set-up: scale not given: the % may be the effect or the level left
# Mus musculus [9] = test: Decrease in body weight of AKR/J DIO mouse relative to control after 15 days at 10 mg/kg, po; assay type: functional; set-up: scale not given: the % may be the effect or the level left
bioavailability [1],IC50 [2],SMILES,also measured
16%,10 nM,COc1ccc(-n2c(N(C)C)nc3cc(-n4cnc5cc(-c6ccc(Cl)cc6)sc5c4=O)ccc32)cc1,–
≥ 100%,1.58 nM,Cc1nc2cc(-n3cnc4cc(-c5ccc(Cl)cc5)sc4c3=O)ccc2n1CCCO,–
–,12.6 nM,COc1ccc(Cn2c(N(C)C)nc3cc(-n4cnc5cc(-c6ccc(Cl)cc6)sc5c4=O)ccc32)cc1,–
–,31.6 nM,COCCNc1nc2cc(-n3cnc4cc(-c5ccc(Cl)cc5)sc4c3=O)ccc2[nH]1,–
0%,3.98 nM,CNc1nc2cc(-n3cnc4cc(-c5ccc(Cl)cc5)sc4c3=O)ccc2[nH]1,–
–,7.94 nM,CC(C)Nc1nc2cc(-n3cnc4cc(-c5ccc(Cl)cc5)sc4c3=O)ccc2[nH]1,–
–,3.16 nM,CCOc1ccc(-n2c(C)nc3cc(-n4cnc5cc(-c6ccc(Cl)cc6)sc5c4=O)ccc32)cc1,–
4%,2.51 nM,CN(C)c1nc2cc(-n3cnc4cc(-c5ccc(Cl)cc5)sc4c3=O)ccc2[nH]1,–
–,20 nM,Cc1ccc(-n2c(C)nc3cc(-n4cnc5cc(-c6ccc(Cl)cc6)sc5c4=O)ccc32)cc1,–
≥ 100%,6.31 nM,Cn1c(N2CCCC2)nc2ccc(-n3cnc4cc(-c5ccc(Cl)cc5)sc4c3=O)cc21,–
–,5.01 nM,Cc1nc2cc(-n3cnc4cc(-c5ccc(Cl)cc5)sc4c3=O)ccc2n1-c1ccc(N(C)C)cc1,–
3%,5.01 nM,COc1ccc(-n2c(C)nc3cc(-n4cnc5cc(-c6ccc(Cl)cc6)sc5c4=O)ccc32)cc1,–
0%,6.31 nM,Cc1nc2cc(-n3cnc4cc(-c5ccc(Cl)cc5)sc4c3=O)ccc2n1C1CCCCC1,–
40%,5.01 nM,COCCCn1c(C)nc2cc(-n3cnc4cc(-c5ccc(Cl)cc5)sc4c3=O)ccc21,–
–,7.94 nM,Cc1nc2cc(-n3cnc4cc(-c5ccc(Cl)cc5)sc4c3=O)ccc2n1-c1ccc(OC(C)C)cc1,–
≥ 100%,1.58 nM,CN(C)c1nc2ccc(-n3cnc4cc(-c5ccc(Cl)cc5)sc4c3=O)cc2n1C,Activity (Mus musculus [3]): -1.6%; bioavailability [4]: > 90%; Kp [5]: 2.6; half-life [6]: 6 h; Activity (Mus musculus [7]): -2.1%; Activity (Mus musculus [8]): -5.1%; Activity (Mus musculus [9]): -10%
76%,3.16 nM,O=c1c2sc(-c3ccc(Cl)cc3)cc2ncn1-c1ccc2[nH]c(N3CCCC3)nc2c1,–
–,15.8 nM,O=c1c2sc(-c3ccc(Cl)cc3)cc2ncn1-c1ccc2[nH]c(NC3CC3)nc2c1,–

bioavailability [1],IC50 [2],SMILES,also measured
59%,10 nM,CN(C)c1nc2cc(-n3cnc4cc(-c5ccc(Cl)cc5)sc4c3=O)ccc2n1CCO,–
–,100 nM,CN1CCN(c2nc3cc(-n4cnc5cc(-c6ccc(Cl)cc6)sc5c4=O)ccc3[nH]2)CC1,–
55%,12.6 nM,CN(C)c1nc2ccc(-n3cnc4cc(-c5ccc(Cl)cc5)sc4c3=O)cc2n1CCO,–
0%,5.01 nM,CN(CCN1CCCC1)c1nc2cc(-n3cnc4cc(-c5ccc(Cl)cc5)sc4c3=O)ccc2[nH]1,–
21%,5.01 nM,CCCn1c(N(C)C)nc2ccc(-n3cnc4cc(-c5ccc(Cl)cc5)sc4c3=O)cc21,–
24%,6.31 nM,Cc1nc2cc(-n3cnc4cc(-c5ccc(Cl)cc5)sc4c3=O)ccc2n1CCN1CCOCC1,–
31%,2 nM,Cc1nc2cc(-n3cnc4cc(-c5ccc(Cl)cc5)sc4c3=O)ccc2n1CCN1CCCC1,–
–,6.31 nM,CN(C)c1nc2cc(-n3cnc4cc(-c5ccc(Cl)cc5)sc4c3=O)ccc2n1C,–
0%,6.31 nM,O=c1c2sc(-c3ccc(Cl)cc3)cc2ncn1-c1ccc2[nH]c(NCCN3CCCC3)nc2c1,–
30%,5.01 nM,CCCn1c(N(C)C)nc2cc(-n3cnc4cc(-c5ccc(Cl)cc5)sc4c3=O)ccc21,–
–,25.1 nM,Cn1c(N2CCCC2)nc2cc(-n3cnc4cc(-c5ccc(Cl)cc5)sc4c3=O)ccc21,–
–,25.1 nM,Cc1nc2cc(-n3cnc4cc(-c5ccc(Cl)cc5)sc4c3=O)ccc2[nH]1,–
–,2510 nM,COc1ccc(Cn2c(N(C)C)nc3ccc(-n4cnc5cc(-c6ccc(Cl)cc6)sc5c4=O)cc32)cc1,–
–,31.6 nM,Cc1nc2cc(-n3cnc4cc(-c5ccc(Cl)cc5)sc4c3=O)ccc2n1-c1ccccc1,–
31%,5.01 nM,O=c1c2sc(-c3ccc(Cl)cc3)cc2ncn1-c1ccc2[nH]c(N3CCCCC3)nc2c1,–
–,15.8 nM,O=c1c2sc(-c3ccc(Cl)cc3)cc2ncn1-c1ccc2[nH]c(N3CCOCC3)nc2c1,–
–,31.6 nM,Nc1nc2cc(-n3cnc4cc(-c5ccc(Cl)cc5)sc4c3=O)ccc2[nH]1,–
